The target of series [1] is T1, MMP-9 (Homo sapiens, UniProt P14780). The series is described as follows: biochemical.
The target in the next series is T2, MMP-7 (Homo sapiens, UniProt P09237).
T2 sequence (P09237 95-267): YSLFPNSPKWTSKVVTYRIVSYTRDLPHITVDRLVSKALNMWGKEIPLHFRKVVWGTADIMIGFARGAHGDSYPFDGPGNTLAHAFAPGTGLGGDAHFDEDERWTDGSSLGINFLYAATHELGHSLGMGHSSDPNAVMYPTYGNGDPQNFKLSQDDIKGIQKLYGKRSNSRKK
Description: Fluorescence enzymatic activity assay / kinetic analyses, MMP-7. Format: biochemical. As to conditions: NI = not inhibiting even at 130-330 μM.

The next series concerns the target T3, MMP-1 (Homo sapiens, UniProt P03956).
T3 sequence (P03956 100-469): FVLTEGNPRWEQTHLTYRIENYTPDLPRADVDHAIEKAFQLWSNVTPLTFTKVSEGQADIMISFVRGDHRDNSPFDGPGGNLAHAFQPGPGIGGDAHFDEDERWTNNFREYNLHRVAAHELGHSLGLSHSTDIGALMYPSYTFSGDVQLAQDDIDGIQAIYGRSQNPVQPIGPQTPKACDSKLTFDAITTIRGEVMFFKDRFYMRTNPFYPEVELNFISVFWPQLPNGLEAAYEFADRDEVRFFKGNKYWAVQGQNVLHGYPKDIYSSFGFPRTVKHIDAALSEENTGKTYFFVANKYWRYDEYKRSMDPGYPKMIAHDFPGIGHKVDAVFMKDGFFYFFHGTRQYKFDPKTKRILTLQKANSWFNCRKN
Description: Kinetic analyses, MMP-1. As to conditions: NI = not inhibiting even at 130-330 μM. The series is classed as biochemical. The method, then:
The progress curves were nonlinear least squares fitted to Equation 1 (Muller-Steffner, H. M., Malver, O., Hosie, L., Oppenheimer, N. J., and Schuber, F. J. Biol. Chem. 1992, 267, 9606-9611.):
Analysis for linear competitive inhibition was performed in the following manner. […] The fluorescence versus time traces were fitted by linear regression analysis using FeliX™. The initial rates were fitted to Equation 5 (Segel, I. H. in: Enzyme Kinetics, Wiley Inc., New York, 1975, pp. 104.):
The following buffers were used in experiments with enzymes: Buffer C (50 mM HEPES at pH 7.5, 150 mM NaCl, 5 mM CaCl2, 0.02% Brij-35); buffer R (50 mM HEPES at pH 7.5, 150 mM NaCl, 5 mM CaCl2, 0.01% Brij-35, and 1% v/v Me2SO) and buffer D (50 mM Tris at pH 7.5, 150 mM NaCl, 5 mM CaCl2, and 0.02% Brij-35).

The target in a further series is T4, MMP-3 (Homo sapiens, UniProt P08254).
T4 construct: gift of Dr. Paul Cannon, Center for Bone and Joint Research, Palo Alto, Calif
T4 sequence (P08254 100-477): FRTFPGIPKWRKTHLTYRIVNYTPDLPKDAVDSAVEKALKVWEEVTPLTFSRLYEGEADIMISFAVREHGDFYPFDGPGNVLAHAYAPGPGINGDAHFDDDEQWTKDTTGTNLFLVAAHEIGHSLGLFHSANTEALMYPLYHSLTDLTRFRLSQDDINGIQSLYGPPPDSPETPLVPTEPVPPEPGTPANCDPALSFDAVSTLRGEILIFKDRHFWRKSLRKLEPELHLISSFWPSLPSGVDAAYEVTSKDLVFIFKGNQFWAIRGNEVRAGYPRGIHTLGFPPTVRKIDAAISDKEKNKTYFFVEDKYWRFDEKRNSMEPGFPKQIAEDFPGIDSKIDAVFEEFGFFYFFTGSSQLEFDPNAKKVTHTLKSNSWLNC
The series is described as follows: Fluorescence enzymatic activity assay / kinetic analyses, stromelysin 1 (MMP-3). The series is classed as biochemical. As to conditions: NI = not inhibiting even at 130-330 μM.

The target of series [2] is T5, MMP-2 (Homo sapiens, UniProt P08253).
T5 sequence (P08253 110-660): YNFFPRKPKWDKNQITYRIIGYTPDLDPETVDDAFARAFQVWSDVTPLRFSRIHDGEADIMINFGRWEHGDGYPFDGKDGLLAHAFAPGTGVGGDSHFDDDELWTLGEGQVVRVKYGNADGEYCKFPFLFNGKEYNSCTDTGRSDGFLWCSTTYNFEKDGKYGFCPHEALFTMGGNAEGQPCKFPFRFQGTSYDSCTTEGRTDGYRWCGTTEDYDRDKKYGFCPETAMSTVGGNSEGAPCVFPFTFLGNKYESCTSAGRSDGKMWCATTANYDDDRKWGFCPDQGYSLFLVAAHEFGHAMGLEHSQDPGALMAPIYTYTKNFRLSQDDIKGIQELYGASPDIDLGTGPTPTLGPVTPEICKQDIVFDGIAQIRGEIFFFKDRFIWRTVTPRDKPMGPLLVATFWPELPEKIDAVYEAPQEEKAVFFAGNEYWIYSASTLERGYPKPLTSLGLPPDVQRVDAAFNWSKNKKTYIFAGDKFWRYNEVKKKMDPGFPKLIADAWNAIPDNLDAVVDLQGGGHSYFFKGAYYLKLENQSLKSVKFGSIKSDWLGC
The series is described as follows: biochemical.

Series [3] addresses T1, MMP-9. The note with it: high-affinity site for TIMPs, reported earlier (Olson et al. 1997); cited from earlier work.
The target of series [4] is T5, MMP-2. As to conditions: high-affinity site for TIMPs, reported earlier (Olson et al. 1997); cited from earlier work.

Like-named read-outs stand apart in the source and are kept apart here.

T1 sequence (P14780 107-707 limits assumed): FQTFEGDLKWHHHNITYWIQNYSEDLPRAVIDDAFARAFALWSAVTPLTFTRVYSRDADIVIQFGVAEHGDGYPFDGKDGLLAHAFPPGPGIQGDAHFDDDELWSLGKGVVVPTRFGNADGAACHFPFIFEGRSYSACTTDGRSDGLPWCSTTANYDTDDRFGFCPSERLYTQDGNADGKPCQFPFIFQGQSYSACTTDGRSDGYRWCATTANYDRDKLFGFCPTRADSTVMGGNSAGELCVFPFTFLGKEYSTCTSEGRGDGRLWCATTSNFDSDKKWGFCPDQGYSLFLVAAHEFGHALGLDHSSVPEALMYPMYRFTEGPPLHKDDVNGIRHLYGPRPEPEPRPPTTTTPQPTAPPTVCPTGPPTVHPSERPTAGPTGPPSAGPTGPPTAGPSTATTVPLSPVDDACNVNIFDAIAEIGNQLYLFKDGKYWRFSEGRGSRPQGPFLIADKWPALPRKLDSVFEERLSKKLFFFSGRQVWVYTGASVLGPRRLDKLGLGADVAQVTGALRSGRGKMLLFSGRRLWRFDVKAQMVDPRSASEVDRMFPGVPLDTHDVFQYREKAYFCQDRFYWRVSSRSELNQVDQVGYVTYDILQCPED
Description for MMP-7: The enzymatic activity of MMP-2, MMP-9, and MMP-7 was monitored with the fluorescence quenched substrate MOCAcPLGLA2pr(Dnp)-AR-NH2. Fluorescence was measured with a Photon Technology International (PTI) spectrofluorometer interfaced to a Pentium computer, equipped with the RatioMaster™ and FeliX™ hardware and software, respectively. The cuvette compartment was thermostated at 25.0° C. […] Fluorescence measurements were taken every 4 s. Less than 10% hydrolysis of the fluorogenic substrate was monitored, as described by Knight.

As for `O=S(=O)(CCC1CS1)c1ccc(Oc2ccccc2)cc1` (stereo not shown) [Compound 2, 2-(4-Phenoxyphenylsulfonyl)ethylthiirane], the melting point (in general, the temperature of the solid-liquid transition) is 99 to 101 °C. In addition, at MMP-9 [1], the Ki (commonly the equilibrium dissociation constant of an inhibitor or competing ligand from its target) came out at 44 ± 5 µM. On MMP-7, this compound gave a Ki greater than 130 µM. Besides, at MMP-1, the inhibition constant (Ki) was greater than 130 µM. On MMP-3, this compound yielded an inhibition constant Ki greater than 130 µM. Also, at MMP-2 [2], the inhibition constant Ki came to 4.7 ± 0.7 µM.
In turn, `O=S(=O)(CCCC1CS1)c1ccc(Oc2ccccc2)cc1` (stereo not shown) [Compound 3, 3-(4-Phenoxyphenylsulfonyl)propylthiirane] yielded a melting point of 75 to 76 °C. Also, at MMP-9 [1], affinity was put at a Ki of 181 ± 41 µM. Also, the inhibition constant (Ki) on MMP-7 was greater than 130 µM. This compound displayed a Ki at MMP-1 greater than 130 µM. The compound also displayed a Ki on MMP-3 greater than 130 µM. The affinity at MMP-2 [2], expressed as Ki, was 4.3 ± 0.7 µM.
For the compound `O=S(=O)(CC1CO1)c1ccc(Oc2ccccc2)cc1` (stereo not shown) [Compound 4, (4-Phenoxyphenylsulfonyl)methyloxirane], the melting point was 50 to 51 °C. The same compound had a Ki on MMP-9 [1] of 186 ± 11 µM. The Ki on MMP-7 was greater than 130 µM. Further, on MMP-1, the Ki was greater than 130 µM. The compound further showed an inhibitory constant (Ki) at MMP-3 greater than 130 µM. The affinity on MMP-2 [2] (Ki), expressed as Ki, was 25 ± 2 µM.
`O=S(=O)(CCC1CO1)c1ccc(Oc2ccccc2)cc1` (stereo not shown) [Compound 5, 2-(4-Phenoxyphenylsulfonyl)ethyloxirane] yielded a melting point of 75 to 77 °C. The Ki on MMP-9 [1] is 102 ± 2 µM. This compound also displayed a Ki on MMP-7 greater than 130 µM. The compound also registered an inhibition constant (Ki) on MMP-1 greater than 130 µM. The compound also had an inhibition constant Ki on MMP-3 greater than 130 µM. Further, the affinity at MMP-2 [2] (Ki), expressed as Ki, was 5.1 ± 0.5 µM.
Consider `O=S(=O)(CCCC1CO1)c1ccc(Oc2ccccc2)cc1` (stereo not shown) [Compound 6, 3-(4-Phenoxyphenylsulfonyl)propyloxirane], for which the Ki on MMP-9 [1] was 75 ± 6 µM; on MMP-7, greater than 130 µM; on MMP-1, greater than 130 µM; at MMP-3, greater than 130 µM; at MMP-2 [2] (Ki) it was 10.7 ± 0.6 µM.
On to “TIMP-1: endogenous cellular protein inhibitor of MMPs (tissue inhibitor for matrix metalloproteinases)”, for which the inhibitory constant (Ki) is 24 ± 4 nM in the series with MMP-9 [3] and 29 ± 5 nM with MMP-2 [4].

These data come from US6703415B2, “Inhibitors of matrix metallaproteinases” (Wayne State University, priority 2000, dated 2004).
